Literature values, collected in patent US9925167B2, “Agents for the control of parasites on animals” (Hansen-AB GmbH, priority 2011, dated 2018).

Assays:
hepatotoxic damage = conditions: orally administered; Aldana et al. 2001
paresthesias = conditions: humans
[1] = tested on: fenvalerate-induced skin sensitizations; conditions: guinea pigs, Malley et al. 1985

Row | Compound | Effect on hepatotoxic damage after i.p. application of cypermethrin (hepatotoxic damage) | Effect on paresthesias triggered by cyano-pyrethroid active substances such as fenvalerate (paresthesias; Flannigan et al. 1985) | Effect of topical application in paresthesias after pyrethroid-induced damage (paresthesias; topical, Bradberry et al. 2005) | Effect of dermal pre-treatment on fenvalerate-induced skin sensitizations [1]
1 | CC(=O)Oc1c(C)c(C)c2c(c1C)CC[C@@](C)(CCC[C@H](C)CCC[C@H](C)CCCC(C)C)O2 [vitamin E acetate, Alpha-tocopheryl acetate] | positive effects | positive effects | positive effect | 
2 | vitamin E |  |  |  | reduction
